Reference: patent US20160115540A1, “PRODRUGS AND DRUGS” (Biogen MA Inc., priority 2013, published 2016)
Where a name gives a salt, the structure may show the parent alone.

Test system: blood and tissues
Assay: Transcriptional profiling, acute (single) dosing, EAE mice: blood and tissues
Assay type: in vivo
Excerpt: EAE induction is generally performed by immunization with brain extracts, CNS proteins (such as myelin basic protein), or peptides from such protein emulsified in an adjuvant such as complete Freund's adjuvant, e.g., as described in Linker et al., Brain. 2011 March 134(Pt3): 678-92. […] FIG. 17 depicts exemplary immunophenotyping panels used to analyze various immune cell populations (e.g., T cells, T regulatory cells, NK cells, B cells, myeloid cells). […] The number of independent mice whose tissues were harvested for transcript profiling studies and whose data passed QC is shown in TABLE 15. Animals were exposed to CO2 and whole blood collected via cardiac puncture. Two 100 μl aliquots of whole blood were collected in 1.5 mL microcentrifuge tubes and snap frozen in liquid nitrogen. Peripheral (liver, spleen, kidney and jejunum) and CNS brain (cerebellum, hippocampus, striatum and cortex) tissues were harvested and snap frozen in liquid nitrogen, with special care taken to collect tissues of similar size and from the same location. All samples were stored at -80° C. until RNA extraction was conducted. For RNA preparation, frozen tissues were placed in 2 mL RNAse-free 96-well blocks with 1.5 mL QIAzol Lysis Reagent (QIAgen) and a 3.2 mm stainless steel bead (BioSpec Products, Bartlesville, Okla.). Tissues were disrupted for four cycles of 45 seconds in a Mini-Beadbeater (Biospec Products). RNA was extracted in chloroform and the aqueous phase was mixed with an equal volume of 70% ethanol. Extracted RNA was applied to RNeasy 96 plates and purified by the spin method according to the manufacturer's protocol (RNeasy 96 Universal Tissue Protocol, QIAgen, Hilden Germany). 50 ul of snap frozen mouse blood was re-suspended in lysis buffer with proteinase K and arrayed into deep-well plates for automated RNA extraction. RNA extractions were completed on […] (Beckman Coulter, Indianapolis, Ind.) using Agencourt RNAdvance Blood kit (Part number A35604) according to the manufacturer's specifications. RNA integrity was assessed using the HT RNA reagent kit (Part number 760410, Caliper Life Sciences, Hopkinton, Mass.) using a LabChip GX (PerkinElmer, Waltham, Mass.). RNA samples with a RQS score of >8.0 were considered high quality for downstream microarray processing. […] Washing and staining of the hybridized arrays were completed as described in the GeneChip Expression analysis technical manual for HT plate arrays using the Genechip® Array Station (Affymetrix, Santa Clara, Calif.) with modifications as described in […] et al. The processed GeneChip® plate arrays were scanned using GeneTitan scanner (Affymetrix, Santa Clara, Calif.). Affymetrix scans were subject to quality control (QC) measures. These tests included a visual inspection of the distribution of raw signal intensities and an assessment of RNA degradation, relative log expression (RLE), and normalized unscaled standard error (NUSE). All sample scans that passed these QC metrics were included in the analysis. […] Nucleic Acids Res 2003; 31:e15; Li C, et al. Genome Biol 2001; 2:[…]0032). […] Stat Appl Genet Mol Biol 2004; 3:Article3). […] Springer Science+Business Media 2005). […] Generally, no distinct sample groupings were apparent from this analysis; however, in the following cohorts, differences in EAE severity across the mice were manifest in global gene expression patterns: An example of this animal grouping is shown in FIG. 33 for the spinal cord from the chronically-dosed 7 h EAE mice. […] Three distinct groups of mice result from unsupervised clustering, and these animal groups correlate with the cumulative EAE score. […] Subsequent analyses for the cohorts listed above only included those animals with the most severe EAE scores; however, for the cohorts 'Spinal Cord, Acute Dosing, 7 h' and 'Spleen, Acute Dosing, 12 h,' there were an insufficient number of mice in the different treatment groups to perform such a sub-analysis. […]

[1] = EAE, Acute Dosing, 90 mpk MMF-vs-Vehicle, 7 h after last dosing
[2] = EAE, Acute Dosing, 90 mpk MMF-vs-Vehicle, 12 h after last dosing
[3] = lymph node, 100MMF-vs-Veh, 12 h

## COC(=O)/C=C/C(=O)O [MMF, monomethyl fumarate]
[1]
  Number of differentially expressed genes identified: Brain: 0
  Number of differentially expressed genes identified: Cerebellum: 1
  Number of differentially expressed genes identified: Lymph Node: 6
  Number of differentially expressed genes identified: Spleen: 114
  Number of differentially expressed genes identified: Whole blood: 6
[2]
  Number of differentially expressed genes identified: Brain: 0
  Number of differentially expressed genes identified: Cerebellum: 1
  Number of differentially expressed genes identified: Lymph Node: 4
  Number of differentially expressed genes identified: Spinal Cord: 1
  Number of differentially expressed genes identified: Whole blood: 7
cerebellum, 100MMF-vs-Veh, 12 h
  FC 5830436I19Rik 1437136_PM_at: 1.87
cerebellum, 100MMF-vs-Veh, 7 h
  FC 1446570_PM_at: 1.51
Lymph node, 100MMF-vs-Veh, 7 h
  FC Aox1 (1419435_PM_at): 2.17
  FC F3 1417408_PM_at: 1.57
  FC Gclm 1439050_PM_at: 1.50
  FC Nqo1 (1423627_PM_at): 1.98
  FC Srxn1 (1419942_PM_at): 1.65
  FC Srxn1 (1426875_PM_s_at): 1.61
[3]
  FC 1446567_PM_at: 1.74
  FC 1457549_PM_at: 1.67
  FC 4930453J04Rik 1454406_PM_at: 1.76
  FC 5830436I19Rik 1437136_PM_at: 1.65
Spinal cord, 100MMF-vs-Veh, 12 h
  FC 1445562_PM_at: 2.11
spleen, 100MMF-vs-Veh, 7 h
  FC 1190002H23Rik 1438511_PM_a_at: 1.60
  FC 1438259_PM_at: 1.56
  FC 1443364_PM_at: 1.88
  FC 1443911_PM_at: 1.54
  FC 1444212_PM_at: 1.54
  FC 1446234_PM_at: 1.50
  FC 1447706_PM_at: 1.57
  FC 1451626_PM_x_at: 1.60
  FC 1452426_PM_x_at: 1.58
  FC 1458296_PM_at: 1.79
  FC 1458586_PM_at: 1.50
  FC 2410129H14Rik 1434664_PM_at: 1.74
  FC 2410129H14Rik 1455052_PM_a_at: 1.56
  FC 2610021A01Rik 1438786_PM_a_at: 1.55
  FC 4732418C07Rik 1446425_PM_at: 1.53
  FC 5730508B09Rik 1447100_PM_s_at: 1.91
  FC AI662270 1434067_PM_at: 1.52
  FC Abi1 1438506_PM_s_at: 1.61
  FC Aco1 (1456728_PM_x_at): 1.69
  FC Acp1 1422716_PM_a_at: 1.80
  FC Adk 1438292_PM_x_at: 1.54
  FC Ampd3 1422573_PM_at: 1.61
  FC Apol9a /// Apol9b 1424518_PM_at: 1.57
  FC Arhgap21 1428369_PM_s_at: 1.57
  FC Arl4a 1435092_PM_at: 2.26
  FC Arl6ip6 1424020_PM_at: 1.52
  FC B3galnt2 1454842_PM_a_at: 1.51
  FC Birc6 1442959_PM_at: 1.54
  FC C79407 1434767_PM_at: 1.95
  FC C1d 1416886_PM_at: 1.52
  FC C330027C09Rik 1449699_PM_s_at: 1.59
  FC Cat 1416429_PM_a_at: 1.51
  FC Ccl6 (1420249_PM_s_at): 1.57
  FC Cdyl 1418070_PM_at: 1.73
  FC Cenpa 1441864_PM_x_at: 1.86
  FC Chic2 1429050_PM_at: 1.67
  FC Cno 1459783_PM_s_at: 1.58
  FC Cpt1a 1434866_PM_x_at: 1.54
  FC Cpt1a 1438156_PM_x_at: 1.52
  FC Cul4a 1451971_PM_at: 1.71
  FC Cycs /// Gm10053 1456071_PM_a_at: 1.64
  FC D030056L22Rik 1455384_PM_x_at: 1.60
  FC Dck 1439012_PM_a_at: 1.59
  FC Dck 1449176_PM_a_at: 1.89
  FC Dctn6 1416499_PM_a_at: 1.53
  FC Dennd4a 1435975_PM_at: 1.71
  FC Ell2 1450744_PM_at: 1.58
  FC Elmo1 1424523_PM_at: 1.52
  FC Gclm 1439050_PM_at: 1.99
